From US10899733B2, “Inhibitors of PARPs that catalyze mono-ADP-ribosylation” (OREGON HEALTH & SCIENCE UNIVERSITY, priority 2017, dated 2021)

Biological target: T1, PARP12 (Homo sapiens, UniProt Q9H0J9)
T1 sequence (Q9H0J9 1-701): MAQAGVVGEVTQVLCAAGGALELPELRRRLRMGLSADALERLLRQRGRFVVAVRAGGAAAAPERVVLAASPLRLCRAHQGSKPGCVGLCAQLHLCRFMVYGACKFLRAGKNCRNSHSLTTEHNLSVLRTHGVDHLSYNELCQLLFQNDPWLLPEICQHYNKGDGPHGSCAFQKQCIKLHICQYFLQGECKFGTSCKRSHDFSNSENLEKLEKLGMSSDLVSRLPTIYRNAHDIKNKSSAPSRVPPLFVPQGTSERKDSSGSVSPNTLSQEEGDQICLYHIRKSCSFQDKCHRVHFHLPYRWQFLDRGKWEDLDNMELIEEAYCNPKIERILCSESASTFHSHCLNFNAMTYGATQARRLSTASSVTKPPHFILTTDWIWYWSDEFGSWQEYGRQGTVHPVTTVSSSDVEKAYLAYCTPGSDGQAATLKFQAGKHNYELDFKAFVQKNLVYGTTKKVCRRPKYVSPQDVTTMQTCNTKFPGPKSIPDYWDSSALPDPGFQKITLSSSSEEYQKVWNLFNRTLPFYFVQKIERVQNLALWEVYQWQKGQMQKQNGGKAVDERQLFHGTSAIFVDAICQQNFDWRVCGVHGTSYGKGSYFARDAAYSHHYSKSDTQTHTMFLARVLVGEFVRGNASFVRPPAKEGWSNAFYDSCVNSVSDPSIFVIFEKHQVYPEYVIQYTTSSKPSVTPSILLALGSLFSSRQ
Assay: PARP panel: ADP-ribosylation of SRPK2 using 6-a-NAD+
Format: biochemical

`Cc1c(-c2ccnc(C(F)(F)F)c2)ccc2c1CCNC2=O` [Compound 22, 5-methyl-6-(2-(trifluoromethyl)pyridin-4-yl)-3,4-dihydroisoquinolin-1(2H)-one] was tested, and the IC50 (6-a-NAD+) was > 30 µM and the PARP/PARP10 (PARP12 over PARP10cat) was >10.
